Results: US10004732B2 (Novartis AG, priority 2014, dated 2018)

Tests used:
PI 3-kinase delta [1] = target: T1, PI 3-kinase delta (Homo sapiens, UniProt O00329); assay: Cellular assay J1, p-Akt (S473) in Rat-1 cells, Surefire format; format: cell-based; settings: non-asterisked data: version J1 (Surefire format), Rat-1 cells; read-out: Assay J PI3Kδ IC50
PI 4-kinase beta = PI 4-kinase beta (Homo sapiens, UniProt Q9UBF8); assay: Kinase Glo Luminescent Kinase Assay (Kglo), assay D; format: biochemical; settings: read-out: Assay D PI4Kβ IC50
[2] = Microsomal clearance assay (M); settings: intrinsic clearance in rat liver microsomes
Procedure: The experiments were performed in 96-well glass plates at 37° C. on an automated Tecan EVO platform. Test compounds at a concentration of 10 mM in pure DMSO were diluted 1:1000 in water to 10 μM. […] Reactions were initiated by the addition of 150 μL of a cofactor solution containing 2 mM NADPH.

PI 3-kinase alpha [3] = target: T2, PI 3-kinase alpha (Homo sapiens, UniProt P42336); assay: Cellular assay H1, p-Akt (S473) in Rat-1 cells, Surefire format; format: cell-based; settings: non-asterisked data: version H1 (Surefire format), Rat-1 cells; read-out: Assay H PI3Kα IC50
Target sequence in this assay (P42336 whole entry): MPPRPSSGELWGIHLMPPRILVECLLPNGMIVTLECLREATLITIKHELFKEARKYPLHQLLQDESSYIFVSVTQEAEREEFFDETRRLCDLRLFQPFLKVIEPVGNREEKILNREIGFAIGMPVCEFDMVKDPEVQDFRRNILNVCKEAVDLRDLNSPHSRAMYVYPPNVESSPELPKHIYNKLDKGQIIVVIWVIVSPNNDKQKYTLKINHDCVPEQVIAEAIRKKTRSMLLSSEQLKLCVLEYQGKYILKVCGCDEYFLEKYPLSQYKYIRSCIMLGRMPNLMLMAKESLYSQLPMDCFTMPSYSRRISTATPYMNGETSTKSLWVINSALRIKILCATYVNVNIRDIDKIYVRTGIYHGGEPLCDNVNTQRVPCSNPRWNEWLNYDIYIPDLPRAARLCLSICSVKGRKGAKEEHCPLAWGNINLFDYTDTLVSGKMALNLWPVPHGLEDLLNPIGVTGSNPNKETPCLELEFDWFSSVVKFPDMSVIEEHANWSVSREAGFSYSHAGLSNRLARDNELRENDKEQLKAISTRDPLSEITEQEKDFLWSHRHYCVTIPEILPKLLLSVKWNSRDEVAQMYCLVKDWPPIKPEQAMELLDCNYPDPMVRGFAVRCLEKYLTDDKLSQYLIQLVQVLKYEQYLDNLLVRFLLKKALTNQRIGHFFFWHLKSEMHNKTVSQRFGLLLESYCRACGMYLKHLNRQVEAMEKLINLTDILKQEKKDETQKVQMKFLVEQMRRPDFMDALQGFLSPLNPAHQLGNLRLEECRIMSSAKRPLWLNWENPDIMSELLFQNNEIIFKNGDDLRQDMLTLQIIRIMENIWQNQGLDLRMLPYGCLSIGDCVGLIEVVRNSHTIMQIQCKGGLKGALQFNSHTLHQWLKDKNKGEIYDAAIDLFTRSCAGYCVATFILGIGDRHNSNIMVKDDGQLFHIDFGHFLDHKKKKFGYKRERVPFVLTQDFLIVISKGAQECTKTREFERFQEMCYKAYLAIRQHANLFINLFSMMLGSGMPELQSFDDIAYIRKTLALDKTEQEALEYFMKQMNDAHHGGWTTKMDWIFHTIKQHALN
Target sequence in this assay (Q63787 whole entry partner): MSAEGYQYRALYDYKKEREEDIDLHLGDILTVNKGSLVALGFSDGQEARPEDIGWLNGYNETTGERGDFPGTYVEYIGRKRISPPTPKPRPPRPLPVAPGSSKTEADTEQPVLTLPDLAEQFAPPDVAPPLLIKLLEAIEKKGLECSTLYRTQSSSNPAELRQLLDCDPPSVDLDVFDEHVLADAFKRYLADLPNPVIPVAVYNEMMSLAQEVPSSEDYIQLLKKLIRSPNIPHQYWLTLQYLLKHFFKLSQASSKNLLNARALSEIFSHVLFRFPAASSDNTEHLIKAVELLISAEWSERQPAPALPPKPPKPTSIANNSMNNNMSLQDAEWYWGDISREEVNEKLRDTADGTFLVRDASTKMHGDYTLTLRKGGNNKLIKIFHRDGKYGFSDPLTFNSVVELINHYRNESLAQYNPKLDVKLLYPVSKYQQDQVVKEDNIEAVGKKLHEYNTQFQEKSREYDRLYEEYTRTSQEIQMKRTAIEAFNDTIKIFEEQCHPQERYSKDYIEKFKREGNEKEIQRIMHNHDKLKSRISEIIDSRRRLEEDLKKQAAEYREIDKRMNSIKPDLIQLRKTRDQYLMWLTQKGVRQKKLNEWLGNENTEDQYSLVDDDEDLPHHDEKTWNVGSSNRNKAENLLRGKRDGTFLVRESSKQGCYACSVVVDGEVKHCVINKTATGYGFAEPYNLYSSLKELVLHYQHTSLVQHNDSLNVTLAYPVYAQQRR

PI 3-kinase beta [4] = target: T3, PI 3-kinase beta (Homo sapiens, UniProt P42338); assay: Cellular assay I1, p-Akt (S473) in Rat-1 cells, Surefire format; format: cell-based; settings: non-asterisked data: version I1 (Surefire format), Rat-1 cells; read-out: Assay I PI3Kβ IC50
PI 3-kinase beta [5] = target: T3, PI 3-kinase beta; assay: Kinase Glo Luminescent Kinase Assay (Kglo), assay B; format: biochemical; settings: read-out: Assay B PI3Kβ IC50
PI 3-kinase delta [6] = target: T1, PI 3-kinase delta; assay: TR-FRET Adapta assay, assay F; settings: read-out: Assay F PI3Kδ IC50
Vps34 = Vps34 (Homo sapiens, UniProt Q8NEB9); assay: Kinase Glo Luminescent Kinase Assay (Kglo), assay C; format: biochemical; settings: read-out: Assay C VPS34 IC50
PI 3-kinase gamma = PI 3-kinase gamma (Homo sapiens, UniProt P48736); assay: TR-FRET Adapta assay, assay E; format: biochemical; settings: read-out: Assay E PI3Kγ IC50
PI 3-kinase alpha [7] = target: T2, PI 3-kinase alpha; assay: Kinase Glo Luminescent Kinase Assay (Kglo), assay A; format: biochemical; settings: read-out: Assay A PI3Kα IC50
Target sequence in this assay (P42336 whole entry): as the sequence (P42336 whole entry) above

mTOR = mTOR (Homo sapiens, UniProt P42345); assay: Lanthascreen kinase binding assay, assay G; settings: read-out: Assay G mTOR IC50
Procedure: Lanthascreen™ Kinase Binding Assay for mTOR (G)
Binding of an inhibitor to the kinase competes for binding with the tracer, resulting in a loss of FRET.
50 nL of compound dilutions were dispensed onto white 384-well small volume polystyrene plate.

Sequence of Vps34 (Q8NEB9 whole entry, species assumed): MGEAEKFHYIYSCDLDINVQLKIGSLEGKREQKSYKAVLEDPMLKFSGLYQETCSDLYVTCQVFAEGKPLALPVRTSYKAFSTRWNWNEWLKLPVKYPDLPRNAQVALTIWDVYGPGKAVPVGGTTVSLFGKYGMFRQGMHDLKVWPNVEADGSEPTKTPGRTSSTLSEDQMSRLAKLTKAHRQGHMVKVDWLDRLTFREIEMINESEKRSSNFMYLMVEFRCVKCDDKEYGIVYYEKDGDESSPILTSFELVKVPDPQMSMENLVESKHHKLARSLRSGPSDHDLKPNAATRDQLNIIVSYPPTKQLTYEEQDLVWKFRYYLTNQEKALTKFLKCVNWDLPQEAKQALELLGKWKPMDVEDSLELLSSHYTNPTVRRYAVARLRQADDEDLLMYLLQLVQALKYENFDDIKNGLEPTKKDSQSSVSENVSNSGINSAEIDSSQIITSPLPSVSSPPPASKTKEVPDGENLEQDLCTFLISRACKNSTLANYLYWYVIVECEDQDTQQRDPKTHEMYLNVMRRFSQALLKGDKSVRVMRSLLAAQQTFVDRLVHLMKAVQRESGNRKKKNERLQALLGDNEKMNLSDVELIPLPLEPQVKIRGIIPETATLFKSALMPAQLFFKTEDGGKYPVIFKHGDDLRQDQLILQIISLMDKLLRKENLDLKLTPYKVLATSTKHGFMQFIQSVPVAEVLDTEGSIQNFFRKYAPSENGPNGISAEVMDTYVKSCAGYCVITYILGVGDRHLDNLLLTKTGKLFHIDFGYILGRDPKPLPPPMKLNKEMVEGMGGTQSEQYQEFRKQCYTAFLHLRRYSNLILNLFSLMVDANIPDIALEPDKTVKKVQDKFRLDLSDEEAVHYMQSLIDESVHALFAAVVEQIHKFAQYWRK
Sequence of PI 3-kinase gamma (P48736 whole entry): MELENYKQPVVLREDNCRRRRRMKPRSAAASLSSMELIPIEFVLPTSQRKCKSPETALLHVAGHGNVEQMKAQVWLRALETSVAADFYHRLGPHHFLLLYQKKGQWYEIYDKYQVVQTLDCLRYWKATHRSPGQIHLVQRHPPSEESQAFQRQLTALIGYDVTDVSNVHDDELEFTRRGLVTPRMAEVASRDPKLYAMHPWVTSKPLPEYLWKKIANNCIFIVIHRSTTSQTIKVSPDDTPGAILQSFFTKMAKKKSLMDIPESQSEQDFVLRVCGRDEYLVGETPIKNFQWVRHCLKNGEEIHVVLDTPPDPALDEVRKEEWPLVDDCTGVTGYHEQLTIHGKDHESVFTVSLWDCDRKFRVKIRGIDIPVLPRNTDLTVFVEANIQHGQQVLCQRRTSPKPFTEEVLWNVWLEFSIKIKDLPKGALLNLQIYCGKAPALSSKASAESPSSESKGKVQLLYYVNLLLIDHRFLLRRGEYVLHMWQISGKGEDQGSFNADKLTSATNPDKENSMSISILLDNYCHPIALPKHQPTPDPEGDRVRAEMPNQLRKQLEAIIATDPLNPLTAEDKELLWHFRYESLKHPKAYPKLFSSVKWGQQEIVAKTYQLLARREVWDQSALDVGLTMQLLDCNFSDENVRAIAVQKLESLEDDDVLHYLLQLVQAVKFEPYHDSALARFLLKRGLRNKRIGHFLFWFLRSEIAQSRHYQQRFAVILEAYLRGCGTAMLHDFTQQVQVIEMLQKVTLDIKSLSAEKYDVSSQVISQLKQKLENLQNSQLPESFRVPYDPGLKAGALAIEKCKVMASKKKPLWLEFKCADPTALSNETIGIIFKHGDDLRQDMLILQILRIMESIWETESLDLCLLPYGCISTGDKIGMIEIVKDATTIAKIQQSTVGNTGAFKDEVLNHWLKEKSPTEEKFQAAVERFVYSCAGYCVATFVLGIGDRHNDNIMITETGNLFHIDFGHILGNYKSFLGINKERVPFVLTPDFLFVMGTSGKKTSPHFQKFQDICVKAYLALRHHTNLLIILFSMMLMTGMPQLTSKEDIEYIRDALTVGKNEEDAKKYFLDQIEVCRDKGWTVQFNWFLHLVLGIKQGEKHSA
Sequence of PI 4-kinase beta (Q9UBF8 whole entry): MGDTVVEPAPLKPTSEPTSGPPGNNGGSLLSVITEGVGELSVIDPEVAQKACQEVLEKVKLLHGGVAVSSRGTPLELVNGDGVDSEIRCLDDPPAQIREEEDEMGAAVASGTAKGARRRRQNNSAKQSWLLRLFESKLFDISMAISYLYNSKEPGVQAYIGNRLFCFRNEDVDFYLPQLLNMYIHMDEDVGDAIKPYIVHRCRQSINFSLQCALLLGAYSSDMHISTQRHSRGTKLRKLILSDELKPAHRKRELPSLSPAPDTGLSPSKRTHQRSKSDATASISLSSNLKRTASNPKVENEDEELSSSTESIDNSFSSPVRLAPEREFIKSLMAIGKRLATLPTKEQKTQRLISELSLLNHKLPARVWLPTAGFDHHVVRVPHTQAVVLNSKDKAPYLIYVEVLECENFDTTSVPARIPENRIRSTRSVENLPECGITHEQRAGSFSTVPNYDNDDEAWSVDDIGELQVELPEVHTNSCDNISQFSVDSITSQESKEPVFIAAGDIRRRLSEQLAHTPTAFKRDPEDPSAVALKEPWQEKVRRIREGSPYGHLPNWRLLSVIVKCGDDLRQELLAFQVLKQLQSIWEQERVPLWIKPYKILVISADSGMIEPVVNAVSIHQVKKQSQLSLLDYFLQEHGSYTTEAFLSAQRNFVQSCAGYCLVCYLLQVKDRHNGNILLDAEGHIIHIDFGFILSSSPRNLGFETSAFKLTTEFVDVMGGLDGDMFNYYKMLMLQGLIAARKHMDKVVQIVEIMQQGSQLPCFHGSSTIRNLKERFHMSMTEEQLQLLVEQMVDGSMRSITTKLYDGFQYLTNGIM

IC50 (PI 3-kinase delta [1]) [nM]	IC50 (PI 4-kinase beta) [nM]	Assay M RLM CI(int) [2] [µL/min/mg]	IC50 (PI 3-kinase alpha [3]) [nM]	IC50 (PI 3-kinase beta [4]) [nM]	IC50 (PI 3-kinase beta [5]) [nM]	IC50 (PI 3-kinase delta [6]) [nM]	IC50 (Vps34) [nM]	IC50 (PI 3-kinase gamma) [nM]	IC50 (PI 3-kinase alpha [7]) [nM]	IC50 (mTOR) [nM]	Compound
790	2670	191	1680	6040	3220	200	> 9100	11	260	6040	Cc1ccc(S(=O)(=O)NCCC(C)(C)O)cc1-c1cnc(N)c(-c2cnn(CC(C)C)c2)n1 [Example 119.32]
2960	> 9100	347	2960	5150	4500	480	> 9100	59	210	5700	Cc1cc(-c2nc(-c3cc(S(=O)(=O)NCC4CCCOC4)ccc3C)cnc2N)ccn1 (centres unmarked) [Example 129.14, 3-(5-amino-6-(2-methylpyridin-4-yl)pyrazin-2-yl)-4-methyl-N-((tetrahydro-2H-pyran-3-yl)methyl)benzenesulfonamide]
510	1790	380	700	1800	3900	40	> 9100	37	250	5870	Cc1ccc(S(=O)(=O)NCCC(C)(C)O)cc1-c1cnc(N)c(-c2cnn(CCC(C)C)c2)n1 [Example 119.26]
> 10000	> 10000	34	> 10000	> 10000	6000	1000	> 10000	270	1000		Cc1ccc(S(=O)(=O)NCC(C)(C)O)cc1-c1cnc(N)c(-c2cnn(CCN(C)C)c2)n1 [Example 142, 3-(5-Amino-6-(1-(2-(dimethylamino)ethyl)-1H-pyrazol-4-yl)pyrazin-2-yl)-N-(2-hydroxy-2-methylpropyl)-4-methylbenzenesulfonamide]
8580	> 9100	28	> 10000	> 10000	> 9100	330	> 9100	58	1740	950	CCc1noc(-c2nc(-c3cc(S(=O)(=O)NC4CNC4)ccc3C)cnc2N)n1 [Example 137, 3-(5-Amino-6-(3-ethyl-1,2,4-oxadiazol-5-yl)pyrazin-2-yl)-N-(azetidin-3-yl)-4-methylbenzenesulfonamide]
3530	940		1970	8490	> 9100	2040	> 9100	525	1340	7600	Cc1ccc(S(=O)(=O)NCCC(C)(C)O)cc1-c1cnc(N)c(-c2ccc(N3CCCCC3)nc2)n1 [Example 119.23]
> 10000	7170		> 10000	> 10000	4330	350	> 9100	55	400	> 9100	Cc1cc(-c2nc(-c3cc(S(=O)(=O)NC4CCNC(=O)C4)ccc3C)cnc2N)ccn1 (centres unmarked) [Example 134, 3-(5-Amino-6-(2-methylpyridin-4-yl)pyrazin-2-yl)-4-methyl-N-(2-oxopiperidin-4-yl)benzenesulfonamide]

Continued, compound first:

Compound	IC50 (PI 3-kinase delta [1]) [nM]	IC50 (PI 4-kinase beta) [nM]	Assay M RLM CI(int) [2] [µL/min/mg]	IC50 (PI 3-kinase alpha [3]) [nM]	IC50 (PI 3-kinase beta [4]) [nM]	IC50 (PI 3-kinase beta [5]) [nM]	IC50 (PI 3-kinase delta [6]) [nM]	IC50 (Vps34) [nM]	IC50 (PI 3-kinase gamma) [nM]	IC50 (PI 3-kinase alpha [7]) [nM]	IC50 (mTOR) [nM]
Cc1ccc(S(=O)(=O)NCCC(C)(C)O)cc1-c1cnc(N)c(-c2cnc(C3CC3)s2)n1 [Example 107, 3-(5-Amino-6-(2-cyclopropylthiazol-5-yl)pyrazin-2-yl)-N-(3-hydroxy-3-methylbutyl)-4-methylbenzenesulfonamide]	960	940	119	790	1290	2090	60	3100	6	80	1390
Cc1ncc(S(=O)(=O)NCC(C)(C)O)cc1-c1cnc(N)c(-n2cncn2)n1 [Example 53, 5-(5-Amino-6-(1H-1,2,4-triazol-1-yl)pyrazin-2-yl)-N-(2-hydroxy-2-methylpropyl)-6-methylpyridine-3-sulfonamide]	> 10000	> 10000	29	> 10000	> 10000	7000	3700	> 10000	690	1700	
CCn1cc(-c2nc(-c3cc(S(=O)(=O)NCC(C)(C)O)ccc3C)cnc2N)nn1 [Example 83, 3-(5-Amino-6-(1-ethyl-1H-1,2,3-triazol-4-yl)pyrazin-2-yl)-N-(2-hydroxy-2-methylpropyl)-4-methylbenzenesulfonamide]	4050	4300	45	> 10000	8750	5200	700	> 10000	85	1900	> 10000
Cc1ccc(S(=O)(=O)NCC(C)(C)O)cc1-c1cnc(N)c(-c2cn(C)nn2)n1 [Example 81, 3-(5-Amino-6-(1-methyl-1H-1,2,3-triazol-4-yl)pyrazin-2-yl)-N-(2-hydroxy-2-methylpropyl)-4-methylbenzenesulfonamide]	4040	9000	29	> 10000	> 10000	6300	2500	> 10000	77	2600	> 10000
Cc1ccc(S(=O)(=O)NCCC(C)(C)O)cc1-c1cnc(N)c(-c2ccoc2)n1 [Example 119.15]	1650	4860		1480	7330	8810	960	> 9100	162	1660	> 9100
Cc1ccc(S(=O)(=O)NCCC(C)(C)O)cc1-c1cnc(N)c(-c2cccnc2F)n1 [Example 119.1]	2820	6200		2690	3810	> 9100	2300	> 9100	1000	610	4910
Cc1ccc(S(=O)(=O)NOC(C)C)cc1-c1cnc(N)c(-n2cncn2)n1 [Example 112.3, 3-(5-Amino-6-(1H-1,2,4-triazol-1-yl)pyrazin-2-yl)-N-isopropoxy-4-methylbenzenesulfonamide]	860	1200	123	400	> 3000	1100	260	> 10000		360	1360
COc1nc(-c2nc(-c3cc(S(=O)(=O)NCCC(C)(C)O)ccc3C)cnc2N)cs1 [Example 110, 3-(5-Amino-6-(2-methoxythiazol-4-yl)pyrazin-2-yl)-N-(3-hydroxy-3-methylbutyl)-4-methylbenzenesulfonamide]	690	> 10000	254	480	1730	520	320	> 10000	10	90	> 10000
Cc1ccc(S(=O)(=O)NCCC(C)(C)O)cc1-c1cnc(N)c(-c2ccc(N3CCCC3)nc2)n1 [Example 119.17]	7160	1560		2810	6170	> 9100	2540	> 9100	362	1450	> 9100
Cc1ccc(S(=O)(=O)NOCC(C)C)cc1-c1cnc(N)c(-n2cncn2)n1 [Example 112.4, 3-(5-Amino-6-(1H-1,2,4-triazol-1-yl)pyrazin-2-yl)-N-isobutoxy-4-methylbenzenesulfonamide]	400	1100		70	> 3000	560	190	> 10000	93	80	> 10000
Cc1ccc(S(=O)(=O)NCCC(C)(C)O)cc1-c1cnc(N)c(-c2c[nH]nc2C)n1 [Example 119.22]	> 10000	2190		4410	> 10000	1930	530	> 9100	157	570	2340
